From ChEMBL document CHEMBL1201862, “PubChem BioAssay data set” (2004)
Several values for one entry are separate records, joined by “and”; a condition that tells them apart may be missing. Identical values can stand only once.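 Step 1: Grow cells in 96-well plates. Step 2: Expose to compound for 48 hours at 5 concentrations. Step 3: Interpolate endpoints linearly; if unreached, use highest concentration. The concentration for 50% growth inhibition is given as GI50.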 Activity calls are given as the source filed them. Rule as the data show it: active = GI50 up to about 1.1 µM and inactive = higher.

What was measured:
Experiment in all cases: DTP human tumour cell line panel, 48 h
[1] = test system: CAKI-1
[2] = test system: CCRF-CEM
[3] = test system: DMS-114
[4] = test system: DMS-273
[5] = test system: HCT-116
[6] = test system: HCT-15
[7] = test system: HL-60
[8] = test system: HOP-92
[9] = test system: HT-29
[10] = test system: LXFL 529
[11] = test system: M14
[12] = test system: M19-MEL
[13] = test system: MOLT-4
[14] = test system: NCI-H23
[15] = test system: NCI-H522
[16] = test system: OVCAR-4
[17] = test system: OVCAR-8
[18] = test system: RPMI-8226
[19] = test system: RXF 393
[20] = test system: SF-539
[21] = test system: SNB-75
[22] = test system: SNB-78
[23] = test system: SW-620
[24] = test system: U-251
[25] = test system: 786-0
[26] = test system: A498
[27] = test system: A549
[28] = test system: ACHN
[29] = test system: BT-549
[30] = test system: COLO 205
[31] = test system: DU-145
[32] = test system: EKVX
[33] = test system: HCC 2998
[34] = test system: HOP-62
[35] = test system: Hs-578T
[36] = test system: IGROV-1
[37] = test system: K562
[38] = test system: KM12
[39] = test system: LOX IMVI
[40] = test system: MCF7
[41] = test system: MDA-MB-231
[42] = test system: MDA-MB-435
[43] = test system: MDA-N
[44] = test system: Malme-3M
[45] = test system: NCI-H226
[46] = test system: NCI-H460
[47] = test system: NCI/ADR-RES
[48] = test system: OVCAR-3
[49] = test system: OVCAR-5
[50] = test system: PC-3
[51] = test system: SF-268
[52] = test system: SF-295
[53] = test system: SK-MEL-28
[54] = test system: SK-MEL-2
[55] = test system: SK-MEL-5
[56] = test system: SK-OV-3
[57] = test system: SN12C
[58] = test system: SNB-19
[59] = test system: SR
[60] = test system: T47D
[61] = test system: TK-10
[62] = test system: UACC-257
[63] = test system: UACC-62
[64] = test system: UO-31
[65] = test system: DLD-1

Which GI50 [1] does the source give for `NCCSSC/C=C\CSSCCN` here?
Its GI50 is 33.7 µM (inactive) and 38.8 µM (inactive).

And the GI50 [2]?
The GI50 was 5.56 µM (inactive).

And the GI50 [3]?
Its GI50 is 30.8 µM (inactive) and 20 µM (inactive).

And the GI50 [4]?
The GI50 was 41.1 µM (inactive) and 22 µM (inactive).

And the GI50 [5]?
Its GI50 is 40.3 µM (inactive) and 36.8 µM (inactive).

What about the GI50 [6] of the same compound?
Its GI50 is 46.9 µM and 34.3 µM.

What about the GI50 [7] of the same compound?
The GI50 was 7.06 µM (inactive) and 14.1 µM (inactive).

And the GI50 [8]?
The GI50 was 38 µM (inactive) and 41.6 µM (inactive).

And the GI50 [9]?
The GI50 was 26.6 µM (inactive) and 34.6 µM (inactive).

What about the GI50 [10] of the same compound?
The GI50 was 23.9 µM (inactive) and 20.1 µM (inactive).

What about the GI50 [11] of the same compound?
Its GI50 is 17.8 µM (inactive) and 31.5 µM (inactive).

What about the GI50 [12] of the same compound?
Its GI50 is 50.9 µM (inactive) and 29.4 µM (inactive).

And the GI50 [13]?
The GI50 was 18.6 µM (inactive) and 15.5 µM (inactive).

And the GI50 [14]?
Its GI50 is 29.6 µM (inactive) and 40.7 µM (inactive).

What about the GI50 [15] of the same compound?
Its GI50 is 15.7 µM (inactive) and 15.5 µM (inactive).

And the GI50 [16]?
The GI50 was 18.8 µM (inactive) and 26.7 µM (inactive).

What about the GI50 [17] of the same compound?
The GI50 was 17.6 µM (inactive) and 27.2 µM (inactive).

And the GI50 [18]?
Its GI50 is 26.2 µM (inactive) and 21.9 µM (inactive).

What about the GI50 [19] of the same compound?
Its GI50 is 54.1 µM (inactive) and 35.9 µM (inactive).

What about the GI50 [20] of the same compound?
Its GI50 is 29.6 µM (inactive) and 18.1 µM (inactive).

And the GI50 [21]?
The GI50 was 34.8 µM (inactive) and > 53.3 µM (inactive).

What about the GI50 [22] of the same compound?
The GI50 was 35.2 µM (inactive) and 28.4 µM (inactive).

What about the GI50 [23] of the same compound?
Its GI50 is 16.2 µM (inactive) and 13.5 µM (inactive).

And the GI50 [24]?
Its GI50 is 34.4 µM (inactive) and 20.6 µM (inactive).

`CCOC(=O)/C(=C\c1cccc(C)c1)C(C)=O` was tested. Which GI50 [25] did it give?
Its GI50 is 13.6 µM (inactive).

What about the GI50 [26] of the same compound?
The GI50 was 13.4 µM (inactive).

And the GI50 [27]?
Its GI50 is 30 µM (inactive).

What about the GI50 [28] of the same compound?
Its GI50 is 22.4 µM (inactive).

What about the GI50 [29] of the same compound?
Its GI50 is 10.8 µM (inactive).

What about the GI50 [1] of the same compound?
The GI50 was 20.9 µM (inactive).

What about the GI50 [30] of the same compound?
The GI50 was 19.2 µM (inactive).

What about the GI50 [31] of the same compound?
The GI50 was 16.7 µM (inactive).

And the GI50 [32]?
Its GI50 is 48 µM (inactive).

And the GI50 [33]?
The GI50 was 15.1 µM (inactive).

What about the GI50 [5] of the same compound?
The GI50 was 16.7 µM (inactive).

And the GI50 [6]?
The GI50 was 15.6 µM.

What about the GI50 [7] of the same compound?
Its GI50 is 3.98 µM (inactive).

What about the GI50 [34] of the same compound?
Its GI50 is 24.5 µM (inactive).

And the GI50 [8]?
The GI50 was 6.7 µM (inactive).

And the GI50 [9]?
The GI50 was 17.9 µM (inactive).

What about the GI50 [35] of the same compound?
The GI50 was 20.7 µM (inactive).

And the GI50 [36]?
Its GI50 is 15.4 µM (inactive).

What about the GI50 [37] of the same compound?
Its GI50 is 28.4 µM (inactive).

And the GI50 [38]?
Its GI50 is 15.2 µM (inactive).

What about the GI50 [39] of the same compound?
The GI50 was 13.6 µM (inactive).

And the GI50 [11]?
Its GI50 is 17.4 µM (inactive).

What about the GI50 [40] of the same compound?
The GI50 was 13.2 µM (inactive).

What about the GI50 [41] of the same compound?
Its GI50 is 12.4 µM (inactive).

And the GI50 [42]?
The GI50 was 16.3 µM (inactive).

What about the GI50 [43] of the same compound?
The GI50 was 12.7 µM (inactive).

What about the GI50 [13] of the same compound?
Its GI50 is 10.2 µM (inactive).

And the GI50 [44]?
The GI50 was 14.1 µM (inactive).

And the GI50 [45]?
Its GI50 is 24.9 µM (inactive).

What about the GI50 [14] of the same compound?
The GI50 was 17 µM (inactive).

What about the GI50 [46] of the same compound?
The GI50 was 20.8 µM (inactive).

What about the GI50 [15] of the same compound?
Its GI50 is 10 µM (inactive).

What about the GI50 [47] of the same compound?
Its GI50 is 19.6 µM (inactive).

What about the GI50 [48] of the same compound?
The GI50 was 14.5 µM (inactive).

What about the GI50 [16] of the same compound?
The GI50 was 19.2 µM (inactive).

And the GI50 [49]?
The GI50 was 10.9 µM (inactive).

And the GI50 [17]?
Its GI50 is 21.6 µM (inactive).

And the GI50 [50]?
The GI50 was 10.5 µM (inactive).

What about the GI50 [18] of the same compound?
Its GI50 is 8.17 µM (inactive).

And the GI50 [19]?
Its GI50 is 11.5 µM (inactive).

What about the GI50 [51] of the same compound?
The GI50 was 15.2 µM (inactive).

What about the GI50 [52] of the same compound?
The GI50 was 23.4 µM (inactive).

And the GI50 [20]?
The GI50 was 16.7 µM (inactive).

And the GI50 [53]?
The GI50 was 12.6 µM (inactive).

And the GI50 [54]?
The GI50 was 10.1 µM (inactive).

And the GI50 [55]?
The GI50 was 16.6 µM (inactive).

And the GI50 [56]?
The GI50 was 25.8 µM (inactive).

And the GI50 [57]?
Its GI50 is 17.1 µM (inactive).

What about the GI50 [58] of the same compound?
Its GI50 is 17.7 µM (inactive).

And the GI50 [21]?
Its GI50 is 4.94 µM (inactive).

And the GI50 [59]?
Its GI50 is 3.44 µM (inactive).

What about the GI50 [23] of the same compound?
The GI50 was 12.5 µM (inactive).

And the GI50 [60]?
The GI50 was 11.1 µM (inactive).

What about the GI50 [61] of the same compound?
The GI50 was 16.3 µM (inactive).

And the GI50 [24]?
Its GI50 is 13.1 µM (inactive).

And the GI50 [62]?
Its GI50 is 14.3 µM (inactive).

What about the GI50 [63] of the same compound?
Its GI50 is 16.5 µM (inactive).

What about the GI50 [64] of the same compound?
The GI50 was 13.8 µM (inactive).

Which results are given for `Brc1cccc(C2SCc3nc4ccccc4n32)c1` (stereo unspecified)?
GI50 [25]: 17.5 µM (inactive); GI50 [27]: 32.7 µM (inactive); GI50 [28]: 16.3 µM (inactive); GI50 [1]: 30.2 µM (inactive); GI50 [2]: 26.2 µM (inactive); GI50 [30]: 19.1 µM (inactive); GI50 [65]: 12.9 µM (inactive); GI50 [3]: 13.7 µM (inactive); GI50 [32]: 18.7 µM (inactive); GI50 [5]: 14.5 µM (inactive); GI50 [6]: 15.2 µM; GI50 [7]: 7.94 µM (inactive); GI50 [34]: 15.3 µM (inactive); GI50 [8]: 11.1 µM (inactive); GI50 [9]: 20.6 µM (inactive); GI50 [36]: 21.7 µM (inactive); GI50 [37]: 9.98 µM (inactive); GI50 [38]: 16.1 µM (inactive); GI50 [39]: 14.6 µM (inactive); GI50 [10]: 20.6 µM (inactive); GI50 [11]: 22.5 µM (inactive); GI50 [12]: 18.2 µM (inactive); GI50 [13]: 22.6 µM (inactive); GI50 [44]: 24 µM (inactive); GI50 [45]: 11.2 µM (inactive); GI50 [14]: 13.9 µM (inactive); GI50 [46]: 23.6 µM (inactive); GI50 [15]: 13.9 µM (inactive); GI50 [48]: 15.2 µM (inactive); GI50 [16]: 19 µM (inactive); GI50 [49]: 6.01 µM (inactive); GI50 [17]: 22.5 µM (inactive); GI50 [18]: 12.5 µM (inactive); GI50 [19]: 5.93 µM (inactive); GI50 [51]: 33.5 µM (inactive); GI50 [52]: 27.1 µM (inactive); GI50 [20]: 20.8 µM (inactive); GI50 [53]: 17.1 µM (inactive); GI50 [55]: 6.4 µM (inactive); GI50 [56]: 21.6 µM (inactive); GI50 [57]: 13.8 µM (inactive); GI50 [21]: 0.0533 µM (active); GI50 [22]: 28.3 µM (inactive); GI50 [59]: 15.7 µM (inactive); GI50 [23]: 31.8 µM (inactive); GI50 [61]: 25.1 µM (inactive); GI50 [24]: 17 µM (inactive); GI50 [63]: 12.9 µM (inactive); GI50 [64]: 9.46 µM (inactive)
